Test results: patent US20200131196A1 (Mount Tam Therapeutics, Inc., priority 2017, published 2020)

Columns and labels:
SK-N-AS = test: OncoPanel cell proliferation assay, SK-N-AS; assay type: cell-based, human
Experimental: (§1) Cells were grown in RPMI 1640, 10% FBS, 2 mM L-alanyl-L-glutamine, 1 mM Na pyruvate, or a special medium. Cells were seeded into 384-well plates and incubated in a humidified atmosphere of 5% CO2 at 37° C. Compounds were added the day following cell seeding. At the same time, a time zero untreated cell plate was generated. After a 3-day incubation period, cells were fixed and stained to allow fluorescence imaging of nuclei. Compounds (1 mM stock solutions) were serially diluted in half-log steps from the highest test concentration ([…]), and assayed over 10 concentrations with a maximum assay concentration of 0.1% DMSO. Automated fluorescence microscopy was carried out using a Molecular Devices ImageXpress Micro XL high-content imager, and images were collected with a 4× objective. 16-bit TIFF images were acquired and analyzed with MetaXpress 5.1.0.41 software.
(§2) Cell proliferation was measured by the fluorescence intensity of an incorporated nuclear dye. The output is referred to as the relative cell count, where the measured nuclear intensity is transformed to percent of control (POC) using the following formula: […]
(§3) Cellular response parameters were calculated using nonlinear regression to a sigmoidal single-site dose response model:
(§4) EC50 is the test compound concentration at the curve inflection point or half the effective response (parameter C of the fitted curve solution). GI50 is the concentration needed to reduce the observed growth by half (midway between the curve maximum and the time zero value). “Cell Count Activity Area” is an estimate of the integrated area above the curve (Barretina, et al. The Cancer Cell Line Encyclopedia enables predictive modelling of anticancer drug sensitivity. Nature 483: 603-607). […] In rare instances, values <0 or >10 may be observed. […] Curve-fitting, calculations, and report generation was performed using a custom data reduction engine and MathIQ based software (AIM).

U2OS = test: OncoPanel cell proliferation assay, U2OS; assay type: cell-based, human
Experimental: as §1, with “Cells” for “Cells were grown in RPMI 1640, 10% FBS, 2 mM L-alanyl-L-glutamine, 1 mM Na pyruvate, or a special medium. Cells”
as §2, §3
(§5) GI50 is the concentration needed to reduce the observed growth by half (midway between the curve maximum and the time zero value). […] In rare instances, values <0 or >10 may be observed. […] Curve-fitting, calculations, and report generation was performed using a custom data reduction engine and MathIQ based software (AIM).

NCIH446 = test: OncoPanel cell proliferation assay, NCIH446; assay type: cell-based, human
Experimental: as §1, §2, §3, §4

DMS114 = test: OncoPanel cell proliferation assay, DMS114; assay type: cell-based, human
Experimental: as §1, with “Cells” for “Cells were grown in RPMI 1640, 10% FBS, 2 mM L-alanyl-L-glutamine, 1 mM Na pyruvate, or a special medium. Cells”
as §2, §3, §5

AGS = test: OncoPanel cell proliferation assay, AGS; assay type: cell-based, human
Experimental: as §1, §2, §3, §4

A388 = test: OncoPanel cell proliferation assay, A388; assay type: cell-based, human; conditions: Homo sapiens
Experimental: as §1, with “Cells” for “Cells were grown in RPMI 1640, 10% FBS, 2 mM L-alanyl-L-glutamine, 1 mM Na pyruvate, or a special medium. Cells”
as §2, §3, §5

CML-T1 = test: OncoPanel cell proliferation assay, CML-T1; assay type: cell-based, human
Experimental: as §1, §2, §3, §4

NCI-H510A = test: OncoPanel cell proliferation assay, NCI-H510A; assay type: cell-based, human
Experimental: as §1, §2, §3, §4

RL95-2 = test: OncoPanel cell proliferation assay, RL95-2; assay type: cell-based, human
Experimental: as §1, §2, §3, §4

CaOV3 = test: OncoPanel cell proliferation assay, CaOV3; assay type: cell-based, human
Experimental: as §1, §2, §3, §4

SW684 = test: OncoPanel cell proliferation assay, SW684; assay type: cell-based, human
Experimental: as §1, with “Cells” for “Cells were grown in RPMI 1640, 10% FBS, 2 mM L-alanyl-L-glutamine, 1 mM Na pyruvate, or a special medium. Cells”
as §2, §3, §5

SW579 = test: OncoPanel cell proliferation assay, SW579; assay type: cell-based, human
Experimental: as §1, §2, §3, §4

AsPC-1 = test: OncoPanel cell proliferation assay, AsPC-1
Experimental: Cells were seeded into 384-well plates and incubated in a humidified atmosphere of 5% CO2 at 37° C. Compounds were added the day following cell seeding. At the same time, a time zero untreated cell plate was generated. After a 3-day incubation period, cells were fixed and stained to allow fluorescence imaging of nuclei. Compounds (1 mM stock solutions) were serially diluted in half-log steps from the highest test concentration (1 micromol), and assayed over 10 concentrations with a maximum assay concentration of 0.1% DMSO. Automated fluorescence microscopy was carried out using a Molecular Devices ImageXpress Micro XL high-content imager, and images were collected with a 4× objective. 16-bit TIFF images were acquired and analyzed with MetaXpress 5.1.0.41 software.

[1] = Homo sapiens, read-out: Cell Count EC50
[2] = Homo sapiens, read-out: Cell Count GI50
[3] = Homo sapiens, read-out: Cell Count IC50

CO[C@H]1C[C@@H]2CC[C@@H](C)[C@@](O)(O2)C(=O)C(=O)N2CCCC[C@H]2C(=O)O[C@H]([C@H](C)C[C@@H]2CC[C@@H](O)[C@H](OC)C2)CC(=O)[C@H](C)/C=C(\C)[C@@H](O)[C@@H](OC)C(=O)[C@H](C)C[C@H](C)/C=C/C=C/C=C/1C [Rapamycin, reference compound]
Cell Count Activity Area (SK-N-AS): 3.58
EC50 (SK-N-AS; [1]): 0.231 nM
GI50 (SK-N-AS; [2]): 0.432 nM
IC50 (SK-N-AS; [3]): > 1000 nM
Cell Count Activity Area (U2OS): 3.04
EC50 (U2OS; [1]): 0.65 nM
GI50 (U2OS; [2]): 2.54 nM
IC50 (U2OS; [3]): > 1000 nM
Cell Count Activity Area (NCIH446): 1.69
EC50 (NCIH446; Homo sapiens, NCI-H446, read-out: Cell Count EC50): > 1000 nM
GI50 (NCIH446; Homo sapiens, NCI-H446, read-out: Cell Count GI50): 44.4 nM
IC50 (NCIH446; Homo sapiens, NCI-H446, read-out: Cell Count IC50): > 1000 nM
Cell Count Activity Area (DMS114): 4.14
EC50 (DMS114; Homo sapiens, DMS-114, read-out: Cell Count EC50): 0.0747 nM
GI50 (DMS114; Homo sapiens, DMS-114, read-out: Cell Count GI50): 0.0478 nM
IC50 (DMS114; Homo sapiens, DMS-114, read-out: Cell Count IC50): > 1000 nM
Cell Count Activity Area (AGS): 5.67
EC50 (AGS; [1]): 0.0387 nM
GI50 (AGS; [2]): 0.165 nM
IC50 (AGS; [3]): 0.314 nM
EC50 (A388; read-out: Cell Count EC50): > 1000 nM
GI50 (A388; read-out: Cell Count GI50): > 1000 nM
IC50 (A388; read-out: Cell Count IC50): > 1000 nM
Cell Count Activity Area (CML-T1): 4.56
EC50 (CML-T1; [1]): 0.189 nM
GI50 (CML-T1; [2]): 0.694 nM
IC50 (CML-T1; [3]): 1.93 nM
Cell Count Activity Area (NCI-H510A): 1.63
EC50 (NCI-H510A; [1]): > 1000 nM
GI50 (NCI-H510A; [2]): > 1000 nM
IC50 (NCI-H510A; [3]): > 1000 nM
Cell Count Activity Area (RL95-2): 4.24
EC50 (RL95-2; [1]): 0.0705 nM
GI50 (RL95-2; [2]): 0.13 nM
IC50 (RL95-2; [3]): > 1000 nM
Cell Count Activity Area (CaOV3): 2.40
EC50 (CaOV3; Homo sapiens, Caov-3, read-out: Cell Count EC50): > 1000 nM
GI50 (CaOV3; Homo sapiens, Caov-3, read-out: Cell Count GI50): > 1000 nM
IC50 (CaOV3; Homo sapiens, Caov-3, read-out: Cell Count IC50): > 1000 nM
Cell Count Activity Area (SW684): 2.81
GI50 (SW684; [2]): 1.97 nM
IC50 (SW684; [3]): > 1000 nM
Cell Count Activity Area (SW579): 4.77
EC50 (SW579; [1]): 0.0136 nM
GI50 (SW579; [2]): 0.0539 nM
IC50 (SW579; [3]): > 1000 nM
Cell Count Activity Area (AsPC-1; AsPC-1): 1.48
EC50 (AsPC-1; Homo sapiens, ASPC1, read-out: Cell Count EC50): > 1000 nM
GI50 (AsPC-1; Homo sapiens, ASPC1, read-out: Cell Count GI50): > 1000 nM
IC50 (AsPC-1; Homo sapiens, ASPC1, read-out: Cell Count IC50): > 1000 nM
